Results: patent publication EP4702986A1, “POLYPEPTIDE AND USE THEREOF” (Biocells (Beijing) Biotech Co., Ltd., priority 2023, dated 2024)
Numbered stars: 1 amine (or outer) side, 2 acyl side, 3 side chain; on linkers, the order of the positions; unused ones are H or OH. Side chains are listed from the residue outwards. Peptide text beside a SMILES is read from it. * marks the point of attachment. C18 diacid = O=C(O)CCCCCCCCCCCCCCCCC(=O)*; γGlu = O=C(O)[C@H](CCC(=O)[*:2])N[*:1]; Fumaroyl = O=C(O)/C=C/C(=O)*; AEEA = NCCOCCOCC(=O)O

Key:
rat model of pMACO [1] = assay: Grip strength test in rat model of pMACO; format: in vivo, SD rats; details: rat, in vivo
rat model of pMACO [2] = assay: Foot fault test in rat model of pMACO; format: in vivo, SD rats
Excerpt: Male SD rats weighing 280-300 g were used and acclimated for at least 3 days. Focal cerebral ischemia was induced by middle cerebral artery occlusion with a suture method under isoflurane anesthesia. The animals were placed in a secure supine position, and a midline incision was made to expose the right common carotid artery, external carotid artery, and internal carotid artery. A 4.0 monofilament nylon suture was advanced from the external carotid artery toward the internal carotid artery lumen until resistance was felt ( ~ 20 mm), indicating middle cerebral artery occlusion. The nylon filament was allowed to stay in place to create a permanent model of focal cerebral ischemia. Successfully modeled rats were randomly assigned to four groups: a solvent (normal saline) group (n=10), a 7 µg/Kg BX-34 group (n=10), a 5 µg/Kg BX-48 group (n=10), and a 5 µg/Kg IRL1620 group (n=10). Each group was administered once at 2 hours, 4 hours, and 6 hours, respectively, after modeling, for a total of three administrations. Grip strength was measured before administration and at 24 hours and on D3 and D7 after administration. A rotarod test and a foot fault test were performed before administration and at 24 hours and day 7 after administration. During the rotarod test, time and distance were recorded, and ratios of the measurement at 24 hours and the measurement at D7 to the pretest measurement were used as analysis indicators. The specific method for the foot fault test was as follows. The rats were placed on an elevated grid floor (29×29 cm, grid opening: 3 cm^2) for 2 minutes, and the number of foot faults (when a forelimb fell through the grid) and the total steps were recorded. % Foot fault = (the number of forelimb faults/the total number of forelimb steps) × 100.

SD rats = details: rat, in vivo
Experimental: Male SD rats were anesthetized with isoflurane, and their neck hairs were shaved. A midline incision was made on the neck to expose the trachea. A ventilator and anesthesia machine for small animals were turned on, with concentration of an anesthetic gas set to 1.2, and its exit channel connected to an inlet of the ventilator. Tidal volume of the ventilator was set to 2 mL, the respiratory rate was 90 breaths/minute, and the respiratory ratio was 1:2. An outlet end of the ventilator was connected to a plastic hose, which was inserted into the rat's airway.
A machine and a software of a biological signal data acquisition and analysis system were turned on. One end of a data acquisition plate was connected to the plastic hose, and the other end was connected to a collector valve connected with a 1-mL syringe. The syringe was filled with heparinized saline, which was injected into the data acquisition plate to expel the air in the entire space until the heparinized saline flowed out from the other end of the plastic hose. The right common carotid arteries of the rats were isolated. A dead knot was made at the distal end and a slipknot at the proximal end of a right common carotid artery. A 1/2-sized incision was made in the artery between the knot with a microscissor, and the plastic hose with heparinized saline was inserted into the incision and fixed to prevent back-and-forth movement. The initial value of the blood pressure was set to zero with the zero-adjustment valve of the biological signal data acquisition and analysis system. The slipknot at the proximal end of the common carotid artery was untied, and real-time blood pressure data of the animal appeared on the software. […] The dosages of IRL1620, BX34, and BX229 were 5 µg/Kg, 42 µg/kg, and 6.6 µg/Kg, respectively.

CC[C@H](C)[C@H](NC(=O)[C@H](CC(=O)O)NC(=O)[C@H](CCCCNC(=O)COCCOCCNC(=O)COCCOCCNC(=O)CC[C@H](NC(=O)CCCCCCCCCCCCCCCCC(=O)O)C(=O)O)NC(=O)[C@H](Cc1c[nH]cn1)NC(=O)[C@H](C)NC(=O)[C@H](Cc1ccccc1)NC(=O)[C@H](Cc1ccc(O)cc1)NC(=O)[C@@H](NC(=O)[C@H](C)NC(=O)[C@H](CCC(=O)O)NC(=O)[C@H](CCC(=O)O)NC(=O)[C@H](CC(=O)O)NC(=O)/C=C/C(=O)O)C(C)C)C(=O)N[C@H](C(=O)N[C@@H](Cc1c[nH]c2ccccc12)C(=O)O)[C@@H](C)CC [BX-34] (Fumaroyl-DEEAVYFAHK([AEEA-AEEA-γGlu-C18 diacid])DIIW-OH)
Grip Strength Test 3D/pre (rat model of pMACO [1]): 63% ±14% | Grip Strength Test 7D/pre (rat model of pMACO [1]): 67% ±19% | Grip Strength Test 24h/pre (rat model of pMACO [1]): 40% ±24% | percentages of foot faults compared with the saline group and the IRL1620 group (rat model of pMACO [2]; pMACO rats, BX-34 7 µg/Kg, BX-48 5 µg/Kg, three administrations): lower | Foot fault Analysis Mean of 7D (rat model of pMACO [2]; percentage of foot faults at 7D, IRL1620 5 µg/Kg, BX34 7 µg/Kg, BX48 5 µg/Kg, administered 3 times (2, 4, 6 hours after modeling)): 3.46%±2.92% | Foot fault Analysis Mean of 24h (rat model of pMACO [2]; percentage of foot faults at 24h, IRL1620 5 µg/Kg, BX34 7 µg/Kg, BX48 5 µg/Kg, administered 3 times (2, 4, 6 hours after modeling)): 10.64%±15.53% | Foot fault Analysis Mean of Pretest (rat model of pMACO [2]; percentage of foot faults, pretest (baseline before administration), groups IRL1620 5 µg/Kg, BX34 7 µg/Kg, BX48 5 µg/Kg, 3 times): 1%±1% | maximum extent of decrease in blood pressure, of the baseline blood pressure (SD rats): 9.5%±1.7% | time to the lowest blood pressure (SD rats): 20 to 35 min | Maximum percentage of blood pressure reduction relative to baseline blood pressure (n = 3) (SD rats; iv): 9.5%±1.7% | Time from baseline blood pressure to the lowest blood pressure (SD rats; iv): 20 to 35 min
